The results in this text go back to US7112586B2, “Substituted diamine derivatives useful as motilin antagonists” (Ortho-McNeil Pharmaceutical, Inc., priority 2000, dated 2006).

One test deals with T1, Motilin Receptor (Oryctolagus cuniculus, UniProt G1T803).
T1 construct: The muscle tissue was homogenized in 10 volumes of 50 mM Tris-Cl; from tissue; host or cells: rabbit colon smooth muscle, crude membrane homogenate
Description: Motilin receptor binding, rabbit colon membranes, 125I porcine motilin. The arrangement: Rabbit Colon % Inh / inhibition / % Inh (Rabbit colon): dose or concentration left out as unconfirmed. To be noted: rabbit colon membranes; for inhibition: read-out: Rabbit Colon % Inh; for IC50: read-out: Rabbit Colon IC50.

Test [1] relates to motilin induced contraction. The test is described as follows: Rabbit tissue bath procedure: inhibition of motilin induced contraction of duodenum segments. On the set-up: species or system New Zealand White rabbit. To be noted: 3 nM porcine motilin induced contraction, read-out: Tissues IC50. The method, then:
Rabbit Tissue Bath Procedure
One New Zealand White rabbit (Covance) of either sex was euthanized with an IV injection of Sleepaway. The duodenum was quickly excised, the lumen rinsed with saline to clean, and the tissue placed in cold, aerated (95% O2–5% CO2) Tyrodes buffer (NaCl 136.9 mM, KCl 2.7 mM, CaCl2 1.8 mM, MgCl2 1.04 mM, NaH2PO4 0.42 mM, NaHCO3 11.9 mM, Glucose 5.55 mM, pH 7.4). The duodenum, being kept moist at all times, was cleaned of any excess mesenteric tissue, and then cut into 3 cm segments starting at the proximal end. Sixteen tissue segments were usually prepared from each duodenum. These segments were tied on both ends with 3-0 silk suture (Ethicon). One end of the tissue was attached to an S-hook on a custom made glass support rod (Crown Glass Co., Somerville) and the rod plus tissue were placed in a 15 ml isolated tissue bath (Radnoti). The other end of the glass rod was attached to a Grass Force Displacement Transducer FT03. The tissue was maintained in room temperature Tyrodes buffer pH 7.4 and continually gassed with 95% O2— 5% CO2. The tissues were adjusted to 1.0 g resting tension and maintained at that tension throughout the equilibration period. An Ml2 Tissue Bath Computer was used to record and analyze data.
The tissues were washed twice during a 30 minute equilibration period and readjusted to 1 g resting tension as necessary. After equilibration the tissues were challenged with 3 μM Carbachol (Carbamoylcholine Chloride-Sigma). After maximal contraction was attained, the tissues were washed 3 times with Tyrodes. The tissues were allowed a 20 minute resting/equilibration period, during which time they were washed once and readjusted to 1 g resting tension. The tissues were challenged a second time with 3 μM Carbachol, and this contraction was considered as maximal, or 100% contraction. The tissues were washed 3 times, equilibrated for 10 minutes, washed again and readjusted to 1 g resting tension. Vehicle or test compound in 30% DMSO-50 mM HEPES was added directly to the bath and the tissues were incubated for 20 minutes. Test compounds and vehicle were run in duplicate.
The percent inhibition by test compound of the motilin induced contraction was calculated by first determining the ratio of the vehicle contractions with Motilin compared to the Carbachol contractions. This Tissue Adjustment Factor (TAF) was used to determine the value for the potential uninhibited contraction with Motilin for each tissue. The percent inhibition was then determined by dividing the actual Motilin contraction in treated tissues by the potential uninhibited contraction and subtracting this number from 1. IC50 values were determined by graphing results with Kaleidograph graphing program.

Test [2] concerns the target T2, motilin receptor preparation (Human antrum tissue) (Homo sapiens, UniProt O43193).
T2 construct: Human antrum tissue from Analytical Biological Services (Wilmington, Del.) was prepared as a motilin receptor preparation; tissue Analytical Biological Services (Wilmington, Del.); host or cells: human antrum (stomach) muscle tissue, crude membrane homogenate
The test is described as follows: 125I-motilin binding to human antral stomach membranes. To be noted: human antrum membranes; for inhibition at 1 µM: read-out: Human Antrum % Inh @1 μM. The arrangement: % Inh (Human antrum): dose or concentration left out as unconfirmed. The method, then: Human antrum tissue from Analytical Biological Services (Wilmington, Del.) was prepared as a motilin receptor preparation in the following manner. The muscle tissue was homogenized in 10 volumes of 50 mM Tris-Cl, 10 mM MgCl2, 0.1 mg/ml bacitracin, and 0.25 mM Peflabloc, pH 7.5) in a Polytron (29000 rpm, 4×15 seconds). The homogenate was centrifuged at 1000×g for 15 minutes and the supernatant discarded. The pellet was washed twice before being suspended in homogenizing buffer. The crude homogenate was resuspended through a 23 gauge needle before aliquoting and storing at −80° C. The human cloned receptor was prepared from HEK 293 cells overexpressed with the motilin receptor. Cell pellets were thawed and resuspended in 2–3 volumes of homogenizing buffer (10 mM Tris-Cl, 0.2 mM MgCl2, 5 mM KCl, 5 μg/ml aprotinin, leupeptin, and pepstatin A, and 50 μg/ml bacitracin, pH 7.5) and allowed to sit on ice for 15–20 minutes. The suspension was homogenized on ice in a Dounce type homogenizer using 15 strokes. Sucrose and EDTA were added to a final concentration of 0.25M and 1 mM, respectively, and mixed with a few additional strokes. The material was centrifuged at 400×g for 5 minutes, and the supernatant saved. The pellet was re-resuspended twice with 5 ml homogenizing buffer and rehomogenized as before, and the supernatants combined. The supernatant was centrifuged at 100000×g for 1 hour. The pellet is retained and resuspended with 5 ml of homogenizing buffer through a 19 g and 25 g needle. The suspension is aliquoted and stored at −80° C. until used. The binding assay contains the following components (50 mM HEPES, 5 mM MgCl2, and 1 mM EGTA, pH 7.0, 15 mg/ml BSA, 10 μg/ml aprotinin, leupeptin, and pepstatin A, 0.25 mg/ml bacitracin, and 10 mM benzamidine), ^125I-radiolabelled porcine motilin (50000–70000 cpm; specific activity 2000 Ci/mmol), test compound, and membrane protein. After 60 minutes at 30° C., the samples are placed on ice and centrifuged for 1 minute at 13000×g. The pellet is washed twice with 1 ml cold saline, and after removal of the final supernatant, the pellet at the bottom of the tube is counted in a gamma counter. Non-specific binding is measured by the inclusion of 1 μM unlabelled motilin. IC50 values were determined from Kaleidograph curves.
125I-Motilin Binding to Human Antral Stomach Membranes and the Human Cloned Receptor: […]

T2 sequence (O43193 whole entry): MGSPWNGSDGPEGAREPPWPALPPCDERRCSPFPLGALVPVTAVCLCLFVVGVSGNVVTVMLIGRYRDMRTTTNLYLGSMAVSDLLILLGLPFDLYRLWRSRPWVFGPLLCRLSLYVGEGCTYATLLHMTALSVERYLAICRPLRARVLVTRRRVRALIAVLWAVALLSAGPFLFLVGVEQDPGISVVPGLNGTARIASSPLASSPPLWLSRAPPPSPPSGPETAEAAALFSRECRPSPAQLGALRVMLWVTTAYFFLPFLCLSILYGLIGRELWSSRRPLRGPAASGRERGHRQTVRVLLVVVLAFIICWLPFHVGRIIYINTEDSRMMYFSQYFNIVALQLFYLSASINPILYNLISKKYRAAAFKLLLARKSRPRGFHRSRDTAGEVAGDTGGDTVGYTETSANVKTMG
T1 sequence (G1T803 1-400): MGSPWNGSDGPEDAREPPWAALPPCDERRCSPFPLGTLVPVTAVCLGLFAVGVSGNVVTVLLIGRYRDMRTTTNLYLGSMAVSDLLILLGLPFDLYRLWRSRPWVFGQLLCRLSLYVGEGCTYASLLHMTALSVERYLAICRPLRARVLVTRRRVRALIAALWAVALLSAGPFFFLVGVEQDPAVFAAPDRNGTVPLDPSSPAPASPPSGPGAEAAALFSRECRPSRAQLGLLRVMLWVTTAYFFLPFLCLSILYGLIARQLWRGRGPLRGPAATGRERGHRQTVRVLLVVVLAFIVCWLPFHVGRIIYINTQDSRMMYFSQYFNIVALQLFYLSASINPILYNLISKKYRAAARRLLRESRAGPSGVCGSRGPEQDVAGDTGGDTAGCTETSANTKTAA

On to `CCN(CC)CCOc1cccc(N(Cc2ccc(F)cc2)C(=O)CCCC(=O)N(CCc2ccccc2)Cc2ccccc2)c1` [compound 178], for which, on Motilin Receptor, the inhibition came out at 100% and the IC50 – broadly, the point on the concentration scale where inhibition reaches its midpoint – was 70 nM. Moreover, in test [1], the IC50 came to 15 nM.

Regarding `O=C(CCCC(=O)N(Cc1ccc(F)cc1)c1cccc(OCCN2CCNCC2)c1)N(CCc1ccccc1)Cc1ccccc1` [compound 179], at Motilin Receptor, the inhibition was 85% and the IC50 came to 240 nM. Moreover, the IC50 in test [1] amounted to 23 nM.

Turning to `O=C(CCCC(=O)N(Cc1ccc(F)cc1)c1cccc(OCCN2CCCC2)c1)N(CCc1ccccc1)Cc1ccccc1` [compound 180], on Motilin Receptor, the inhibition was 99%. In addition, the IC50 amounted to 14 nM at Motilin Receptor and 11 nM in test [1].

For the compound `CN(C)CCOc1cccc(N(Cc2ccc(F)cc2)C(=O)CCCC(=O)N(CCc2ccccc2)Cc2ccccc2)c1` [compound 181], at Motilin Receptor, the inhibition came out at 100% and the IC50 was determined as 93 nM. For the same compound, the IC50 in test [1] was 12 nM.

As to `O=C(CCCC(=O)N(Cc1ccc(F)cc1)c1cccc(OCCN2CCCCC2)c1)N(CCc1ccccc1)Cc1ccccc1` [compound 182], the inhibition at Motilin Receptor is 94%. The figures for the IC50 (on Motilin Receptor; in test [1]) were 22 nM and 53 nM, respectively.

For the compound `O=C(CCCC(=O)N(Cc1ccc(F)cc1)c1cccc(OCCCN2CCCCC2)c1)N(CCc1ccccc1)Cc1ccccc1` [compound 188], at Motilin Receptor, the inhibition stood at 100% and the IC50 came to 247 nM. Moreover, in test [1], the IC50 was 92 nM.

For the compound `Cc1c(OCCN2CCCC2)cccc1N(Cc1ccc(F)cc1)C(=O)CCCC(=O)N(CCc1ccccc1)Cc1ccccc1` [compound 196], on Motilin Receptor, the inhibition was 100% and the IC50 amounted to 6 nM. Moreover, the IC50 in test [1] was 4 nM.

Consider `O=C(CCCC(=O)N(Cc1ccc(F)cc1)c1cccc(OCCN2CCCC2)c1)N(CCc1ccccc1)Cc1cccc([N+](=O)[O-])c1` [compound 197], for which, at Motilin Receptor, the inhibition came to 85%. The IC50 on Motilin Receptor is 9 nM; in test [1] it was 7.6 nM.

With `O=C(CCCC(=O)N(Cc1ccc(F)cc1)c1cccc(OCCN2CCCC2)c1)N(CCc1ccccn1)Cc1cccc(Cl)c1` [compound 201], on Motilin Receptor, the inhibition worked out at 93% and the IC50 is 57 nM. In test [1], the IC50 came out at 16.8 nM.

With `O=C(CCCC(=O)N(Cc1ccc(F)cc1)c1cccc(OCCN2CCCC2)c1)N(CCc1ccc(Cl)cc1)Cc1cccc(Cl)c1` [compound 202], on Motilin Receptor, the inhibition was 100% and the IC50 is 330 nM. In test [1], the IC50 worked out at 230 nM.

In the case of `O=C(CCCC(=O)N(Cc1ccc(F)cc1)c1cccc(OCCN2CCCC2)c1)N(CCc1cccs1)Cc1cccc(Cl)c1` [compound 204], the inhibition on Motilin Receptor came out at 89%. The IC50 was 29 nM on Motilin Receptor and 3 nM in test [1].

`Cc1c(OCCN2CCCC2)cccc1N(CC1CCCC(N(Cc2cccc(Cl)c2)C(=O)C(Cl)(Cl)Cl)C1)C(=O)c1ccc(F)cc1` (stereo not drawn) [compound 209]: on Motilin Receptor, the inhibition is 84% and the IC50 was determined as 59 nM. Moreover, the IC50 in test [1] is 21 nM.

Consider `Cc1c(OCCN2CCCC2)cccc1N(CC1CCCC(N(Cc2ccccc2)C(=O)C(Cl)(Cl)Cl)C1)C(=O)c1ccc(F)cc1` (stereo not drawn) [compound 210], for which, on Motilin Receptor, the inhibition came out at 90% and the IC50 was determined as 86 nM. Moreover, the IC50 in test [1] came out at 24 nM.

In the case of `O=C(c1ccc(F)cc1)N(CC1CCCC(N(Cc2ccccc2)C(=O)C(Cl)(Cl)Cl)C1)c1cccc(OCCN2CCCC2)c1` (stereo not drawn) [compound 213], the inhibition at Motilin Receptor worked out at 84%. The IC50 was 58 nM at Motilin Receptor and 27 nM in test [1].

Turning to `CC(C)(C)C(=O)N(Cc1ccccc1)C1CCC(CN(C(=O)c2ccc(F)cc2)c2cccc(OCCN3CCCC3)c2)C1` (stereo not drawn) [compound 216], the “Human Antrum % Inh @1 μM” value in test [2] was found to be 100%.

For the compound `CC(C)(C)C(=O)N(Cc1cccc(Cl)c1)C1CCC(CN(C(=O)c2ccc(F)cc2)c2cccc(OCCN3CCCC3)c2)C1` (stereo not drawn) [compound 217], the “Human Antrum % Inh @1 μM” value in test [2] worked out at 98%.

For the compound `O=C(c1ccc(F)cc1)N(C[C@H]1CC[C@@H](N(Cc2ccccc2)C(=O)C(Cl)(Cl)Cl)C1)c1cccc(OCCN2CCCC2)c1` [compound 218], the inhibition at 1 µM in test [2] stood at 98%. Besides, in test [1], the IC50 came to 35 nM.

Regarding `O=C(c1ccc(F)cc1)N(CC1CCC(N(Cc2cccc([N+](=O)[O-])c2)C(=O)C(Cl)(Cl)Cl)C1)c1cccc(OCCN2CCCC2)c1` (stereo not drawn) [compound 219], in test [2], the IC50 turned out to be 7.6 nM and the “Human Antrum % Inh @1 μM” value is 98%.

Take `CC(C)(C)C(=O)N(Cc1ccc(F)c(F)c1)[C@@H]1CC[C@H](CN(C(=O)c2ccc(F)cc2)c2cccc(OCCN3CCCC3)c2)C1` [compound 220]: the inhibition at 1 µM in test [2] was 92%.

As to `CC(C)(C)C(=O)N(Cc1ccccc1)C1C=CC(CN(C(=O)c2ccc(F)cc2)c2cccc(OCCN3CCCC3)c2)C1` (stereo not drawn) [compound 221], the “Human Antrum % Inh @1 μM” value in test [2] amounted to 94%.

For the compound `O=C(c1ccc(F)cc1)N(CC1CCCC(N(Cc2ccccc2)Cc2ccccc2)C1)c1cccc(OCCN2CCCC2)c1` (stereo not drawn) [compound 222], the “% Inh (Rabbit colon)” value on Motilin Receptor (125I porcine motilin binding) is 83%. In addition, in test [2] (125I porcine motilin binding), the “% Inh (Human antrum)” value worked out at 83%.

`CC(C)(C)C(=O)N(Cc1cccc(Cl)c1)C1CCCC(CN(C(=O)c2ccc(F)cc2)c2cccc(OCCN3CCCC3)c2)C1` (stereo not drawn) [compound 226]: in test [2], the IC50 was 32 nM and the inhibition at 1 µM stood at 100%. The IC50 in test [1] was determined as 9 nM.

Consider `CC(C)(C)C(=O)N(Cc1ccc(Cl)c(Cl)c1)C1CCCC(CN(C(=O)c2ccc(F)cc2)c2cccc(OCCN3CCCC3)c2)C1` (stereo not drawn) [compound 227], for which, in test [2], the IC50 turned out to be 25 nM and the inhibition at 1 µM came out at 100%.

For `CC(C)(C)C(=O)N(Cc1ccc(F)c(F)c1)C1CCCC(CN(C(=O)c2ccc(F)cc2)c2cccc(OCCN3CCCC3)c2)C1` (stereo not drawn) [compound 228], in test [2], the IC50 worked out at 25 nM and the inhibition at 1 µM was 100%.

For the compound `O=C(c1ccc(F)cc1)N(C[C@H]1CC[C@@H](N(Cc2ccccc2)C(=O)C(Cl)(Cl)Cl)C1)c1cccc(OCCN2CCCC2)c1` [compound 231], in test [2], the “Human Antrum % Inh @1 μM” value was found to be 88%.
